Laboratory results reported in patent publication EP2963029A1, “Cyclic derivatives of epoxyisoprostanoids as therapeutic agents” (ETH Zurich, priority 2014, dated 2016).
Where two headings read alike, the source gives them in different places.

How the values were obtained:
Nrf2 target genes = experiment: qPCR expression of Nrf2 target genes in pretreated, R837-stimulated bone marrow-derived dendritic cells; type: cell-based, mouse
Description: (§1) • Figure 1: Treatment with cyclo-EC (9) licenses dendritic cells to polarize niave CD4 T cells towards the Th2 subset. Naïve transgenic splenic CD4 T cells were co-cultured together with splenic dendritic cells that had been pre-treated either with cyclo-EC (9) (cEC) or the respective solvent control. CD4 T cells were then stimulated with the cognate antigen for 4 days. […] Shown is the percentage of IL-4 producing Th2 and IFNγ producing Th1 cells after treatment with cEC or solvent DMSO. Differences between cEC and DMSO treatments are significant as indicated by (*) using unpaired, two-tailed t tests. […] Wild type bone marrow-derived dendritic cells were pretreated with cyclo-EC (9) (cEC) or solvent control for 75 minutes before stimulation with the TLR7 (toll-like receptor 7) ligand R837 (Syed, T. A., Exp.Opin.Pharmacother. 2001, 2, 877) for an additional 3 h. Cells were then lysed, mRNA was purified, reverse transcribed and expression of Nrf2 ([…]) target genes as well as the indicated chemokine genes was determined by qPCR. Expression levels were normalized to G6PDH (glucose 6-phosphate dehydrogenase) expression. […] Cytokines in the supernatant were quantified with ELISA. • Figure 4. […] Cytokines in the supernatant were quantified with ELISA. • Figure 5. […]

IL-6 [1] = experiment: IL-6 secretion by bone marrow-derived dendritic cells stimulated with TLR7 agonist R837 (ELISA); type: cell-based, mouse; conditions: BMDCs treated 60 minutes, then R837 for 18 h (Figures 3-5)
Description: as §1, with “qPCR.” for “qPCR. Expression levels were normalized to G6PDH (glucose 6-phosphate dehydrogenase) expression.”
(§2) Bone marrow cells from tibia and femur were isolated ex vivo and differentiated in vitro into bone marrow derived dendritic cells (BMDC) by cultivation in the presence of 2 ng/ml carrier free recombinant mouse GM-CSF (BioLegend, 576308) in RPMI 1640 medium (GE Healthcare, E15-039) supplemented with L-glutamine (Lonza-Cambrex BioWhittaker, BE17-605E), HEPES Buffer (Lonza-Cambrex BioWhittaker, BE17-737E), peniciline/ streptomycine (Gibco Life Technologies 15140-122) and fetal bovine serum (Gibco Life Sciences 10270-106). […] Cells were then harvested, counted and seeded into 96-well flat bottom plates at 10^5 cells/well. […] Cytokine concentrations in supernatant were quantified by sandwich ELISA using the following antibody pairs: IL-6 (504502 and 504602) from BioLegend and IL-12 (14-7125-85 and 13-7123-85) from eBioscience. […] Optical density was measured using a Spectra MAX 190 device by Bucher biotec. […]

IL-12 [2] = experiment: IL-12 secretion by bone marrow-derived dendritic cells stimulated with TLR7 agonist R837 (ELISA); type: cell-based, mouse; conditions: BMDCs treated 60 minutes, then R837 for 18 h (Figures 3-5)
Description: as §1, with “qPCR.” for “qPCR. Expression levels were normalized to G6PDH (glucose 6-phosphate dehydrogenase) expression.”
as §2

IL-6 [3] = conditions: bone-marrow derived dendritic cells, Egger et al., Angew. Chem. Int. Ed. 2013, cited from earlier work
naïve CD4 T cells = experiment: Co-culture of compound-pretreated splenic dendritic cells with naive CD4 T cells; Th1/Th2 polarization by intracellular FACS staining; type: cell-based, C57BL/6 mice
IL-12 [4] = conditions: bone-marrow derived dendritic cells, Egger et al., Angew. Chem. Int. Ed. 2013, cited from earlier work
[5] = tested on: Pro-inflammatory chemokine genes: CCL1, 2, 3 and 4; experiment: qPCR expression of pro-inflammatory chemokine genes in pretreated, R837-stimulated bone marrow-derived dendritic cells; type: cell-based, mouse; conditions: pretreated 75 minutes, then R837 for 3 h; normalized to G6PDH (Figure 2)
Description: as §1

SMILES | expression of downstream targets of Nrf2 (Nrf2 target genes; earlier experiments, quantitative PCR) | inhibition of IL-6 secretion (IL-6 [1]) | inhibition of IL-12 secretion (IL-12 [2]) | secretion of pro-inflammatory cytokine IL-6 (IL-6 [3]) | secretion of pro-inflammatory cytokine IL-6 (IL-6 [3]; listed as 8) | polarization of naïve CD4 T cells towards the Th2 subset (naïve CD4 T cells; earlier experiments, splenic dendritic cells) | secretion of pro-inflammatory cytokine IL-12 (IL-12 [4]) | secretion of pro-inflammatory cytokine IL-12 (IL-12 [4]; listed as 8) | pro-inflammatory chemokine expression (CCL1, 2, 3 and 4) [5] | expression of Nrf2 target genes (HO-1, NQO1) (Nrf2 target genes; pretreated 75 minutes, then R837 for 3 h, normalized to G6PDH (Figure 2)) | inhibition of IL-6 secretion (IL-6 [1]; listed as cEC) | inhibition of IL-12 secretion (IL-12 [2]; listed as cEC) | percentage of IFNγ producing Th1 cells (naïve CD4 T cells; dendritic cells treated with 500nM for 60 minutes, co-culture 4 days with 10 nM gp61, vs solvent DMSO, p = 0.0161 (Figure 1)) | percentage of IL-4 producing Th2 cells (naïve CD4 T cells; dendritic cells treated with 500nM for 60 minutes, co-culture 4 days with 10 nM gp61, vs solvent DMSO, p = 0.039 (Figure 1))
CCCCC/C=C\C[C@H]1C=CC(=O)/C1=C/[C@H]1O[C@@H]1CCCC(=O)O [EC (8), 4-((2R,3R)-3-((E)-((S)-2-((Z)-Oct-2-en-1-yl)-5-oxocyclopent-3-en-1-ylidene)-methyl)oxiran-2-yl)butanoic acid] | able to drive expression of downstream targets of Nrf2 | potent inhibitor of toll-like receptor 7 (TLR) mediated secretion of pro-inflammatory cytokines | potent inhibitor of toll-like receptor 7 (TLR) mediated secretion of pro-inflammatory cytokines | more potent than EI (19) | reduced secretion | able to license splenic dendritic cells to polarize naïve CD4 T cells towards the Th2 subset | more potent than EI (19) | reduced secretion |  |  |  |  |  | 
CCCCC/C=C\C[C@@H]1/C(=C\[C@H]2O[C@@H]2CCCC(=O)O)C(=O)C[C@H]1O [EI (19), 5,6-epoxyisoprostane E2] |  |  |  | reduced secretion |  |  | reduced secretion |  |  |  |  |  |  | 
CCCCC/C=C\C[C@H]1C=CC(=O)/C1=C/[C@@H](O)[C@@H]1CCCC(=O)O1 [cyclo-EC (9), (S)-6-((R,E)-1-Hydroxy-2-((S)-2-((Z)-oct-2-en-1-yl)-5-oxocyclopent-3-en-1-liydene)-ethyl)tetrahydro-2H-pyran-2-one] |  | most potent inhibitor of IL-6 and IL-12 secretion | most potent inhibitor of IL-6 and IL-12 secretion |  |  |  |  |  | inhibits pro-inflammatory chemokine expression | induces expression of Nrf2 target genes | attenuates secretion of pro-inflammatory cytokines at lower concentrations than EC | attenuates secretion of pro-inflammatory cytokines at lower concentrations than EC | interferes with high dose antigen induced polarization towards the Th1 subset | licenses the dendritic cells to promote polarization of the Th2 subset
